According to patent US20230172940A1, “METHODS OF EXTENDING LIFESPAN BY ADMINISTERING FERROPTOSIS INHIBITORS” (COLLABORATIVE MEDICINAL DEVELOPMENT, LLC, priority 2020, published 2023):
Counter-ions that a name gives are not always drawn.

Legend:
Assay type in all cases: in vivo, Caenorhabditis elegans
[1] = tested on: C. elegans strain TJ1060; assay: Glutathione depletion: survival after diethyl maleate (DEM) exposure; details: for DEM toxicity (survival): 4-day old worms, 200 μM Lip-1 or 250 μM SIH from late L4
Protocol: Diethyl maleate (DEM; Sigma-Aldrich) was added to neat DMSO and added to molten NGM at 55° C. to a final concentration of 5^o 10^o 15 or 20 mM DEM and 0.5% v/v DMSO. Plates were seeded with OP50 and used within 24 hours. As above^o data was collected at 25 (±1) ° C. using the temperature sensitive-sterile strain TJ1060. A synchronous population was obtained by transferring egg-laying adults to fresh plates at 16° C. for 2-3 hours. The adults were removed and the plates with eggs then transferred to 25° C. to ensure sterility. After 48 hours at 25° C.^o when worms were at the late L4/young adult stage^o 25-35 nematodes were transferred to fresh plates containing either vehicle control^o 250 μM SIH^o or 200 μM Lip-1. Worms were aged at 25° C. for a further 4 days and then transferred to DEM plates. Survival^o determined by touch-provoked movement^o was scored at 24 and 48 hours after exposure to DEM.
Aging studies were also undertaken to determine changes with age of both survival after DEM exposure and basal glutathione levels. Initial populations were obtained as describe above^o with worms aged on standard NGA plates. Note that here we refer to the age of adults as determined by the number of days following the last larval molt and therefore reflects the number of days of adulthood^o not the time since egg.
For survival with increasing DEM dose response and protection by compounds (Lip-1 and SIH), data was plotted as fraction of animal alive with upper and lower 95% confidence interval, using the Wilson ‘score’ method using asymptotic variance and fitted with a sigmoidal curve (Prism). Pairwise comparisons of treated groups versus control at each concentration of DEM was determined using the N-1 chi-squared test.

[2] = tested on: DAF-16; assay: DAF-16 localization (reporter strain TJ356); details: for DAF-16 nuclear translocation: 250 μM SIH, 200 μM Lip-1
Protocol: Wild type (strain N2)^o the temperature sensitive-sterile strain TJ1060: spe-9(hc88); fer-15(b26) and the DAF-16 reporter strain TJ356: zls356 [Pdaf-16::daf-16a/b::gfp+rol-6(su1006)] were obtained from the Caenorhabditis Genetics Center. The wild type strain was maintained at 20° C. on standard nematode growth media (NGM) and aged at 20° C. or 25° C. as required. TJ1060 was maintained at 16° C. and also aged at 20° C. or 25° C. as required. TJ1060 was predominately used to remove the inconvenience of progeny production and can be regarded as a proxy for wild type.
We considered whether the higher levels of glutathione in animals treated with SIH ( ) could reflect a hormetic response to sublethal oxidative stress, which has been described for SIH at low concentrations (10 μM) combining with the cellular labile iron pool within hepatocellular carcinoma cells in culture. […] To further discount possible off-target stress responses elicited by our interventions, we interrogated DAF-16 localization. Nuclear localization of the DAF-16 transcription factor is known to be an indicator of […], which occurs under stress conditions. […] Taken together, these findings argue against hormesis mediating the benefits of SIH or Lip-1 under these conditions in C. elegans.

[3] = tested on: total glutathione; assay: Quantification of total glutathione; details: for glutathione depletion induced by DEM: Day 4 animals; for age-dependent decrease in glutathione: treated from L4, assayed on Day 4 of adult life
Protocol: Measurement of total glutathione was based on established protocols and is based on a kinetic spectrophotometric assay using the reaction between GSH and 5^o5′-dithio-bis (2-nitrobenzoic acid) (DTNB) measured at 412 nm (Caito and Aschner^o 2015; Rahman et al.^o 2006). All reagents were freshly prepared prior to the assay and for each estimate 50 adults were collected in 200 μL of S-basal (Brenner^o 1974) in 1.7 ml microfuge tubes. Animals were washed twice in S-basal^o pelleted via centrifugation and total volume reduced to 20 μL. A 50 μL aliquot of Extraction Buffer was added then the samples were frozen in Liquid N2 and store at −80° C. until required. Extraction buffer consisted of 6 mg/mL 5-sulfosalicylic acid dehydrate^o 0.1% v/v Triton X-100 and Complete^o EDTA-free Proteinase inhibitor cocktail (Roche) in KPE buffer (0.1 M potassium phosphate buffer and 5 mM EDTA at pH 7.5).
Samples were homogenized with a Bioruptor Next Gen (Diagenode) bath sonicator^o set on HIGH and cooled to 4° C.^o using 10 cycles of 10 seconds ON and 10 seconds OFF. Supernatant was collected following a 14K×g spin at 4° C. Assays were performed in 96 well microplates (clear polystyrene^o flat-bottomed^o Greiner bio-one)^o in a total volume of 200 μL per well. To each well was added 50 μL of lysate supernatant^o 50 μL of milli-Q H2O and then 100 μL of GA buffer (NADPH 400 μM^o glutathione reductase 1 U/mL and 0.3 mM DTNB in KPE buffer diluent). Reactions were incubated for 1-2 min at room temperature and then absorbance measured at 412 nm for 10 min with 1 min interval using a Powerwave plate spectrophotometer (BioTek). The rate of change in absorbance per minute is linearly proportional to the total concentration of GSH. Total GSH in the samples was interpolated from using linear regression from a standard curve of known GSH concentrations (0 to 1 μM) run in tandem. In parallel^o the concentration of total protein per sample was also determined by a Bicinchoninic acid (BCA) assay (Pierce) using the manufacturers protocol. Total GSH estimates were then normalized for protein load thous accounting for any size differences between populations. Within experiment results are presented as relative glutathione levels^o where results are normalized to the mean of the starting population.

[4] = tested on: malondialdehyde (MDA); assay: Lipid peroxidation: malondialdehyde (TBARS assay); details: for aged-related increase in MDA: aging at 25° C
Protocol: Measurement of malondialdehyde (MDA) was performed using a Thiobarbituric acid reactive substances (TBARS) assay kit (10009055^o Caymen Chemical) as per manufacturer instructions using reduced reaction volumes of 1 mL. For C. elegans samples with acute glutathione depletion^o Day 1 adults were treated with and without 20 mM DEM for 6 h at 25° C. prior to collection. For aging^o animals were aged at 25° C. and treated with Lip-1 or SIH as previously described. Replicate samples were collected^o washed twice in S-basal^o pelleted by centrifugation. Following removal of excess buffer samples (^˜40 μL) were frozen in liquid-N2 and stored at −80° C. until needed. Samples were then homogenized via a Bioruptor bath sonicator (Diagenode^o set on ‘high power’ with 10 cycles of 10 s pulses with a 10 s pause between pulses^o at 4° C.)^o then centrifuged at 21^o500×g at 4° C. for 30 min and the supernatant retained. The concentration of protein was determined using a BCA assay kit (Pierce) and equivalent aliquots of 20-25 μg total protein used for subsequent measurements.

[5] = 10 mM DEM, 24-hour exposure, 4-day old adult worms

Structure (SMILES) | DEM toxicity (survival) [1] | DAF-16 nuclear translocation [2] | glutathione depletion induced by DEM [3] | age-dependent decrease in glutathione [3] | aged-related increase in MDA [4] | lethality [1, 5] | death of adult worms ([1]; DEM≥1 mM, 4-day old adult worms, dose- and time-dependent) | DAF-16 nuclear localization ([2]; 10 mM DEM, positive control) | depletion of glutathione [3, 5] | relative amounts of MDA ([4]; acute glutathione depletion by DEM exposure (20 mM, 6 h, Day 1 adults))
O=C(N/N=C/c1ccccc1O)c1ccncc1 [SIH, Salicylaldehyde isonicotinoyl hydrazone] | rescued | Neither 250 μM SIH nor 200 μM Lip-1 induced DAF-16 nuclear translocation | mitigated the glutathione depletion induced by DEM | prevented the age-dependent decrease in glutathione | ameliorated | – | – | – | – | –
Clc1cccc(CNC2=Nc3ccccc3NC23CCNCC3)c1 [Lip-1, N-[(3-chlorophenyl)methyl]-spiro[piperidine-4,2′(1′H)-quinoxalin]-3′-amine] | rescued | Neither 250 μM SIH nor 200 μM Lip-1 induced DAF-16 nuclear translocation | did not prevent the fall in glutathione | did not prevent the fall in glutathione | ameliorated | – | – | – | – | –
CCOC(=O)/C=C\C(=O)OCC [DEM, Diethyl maleate] | – | – | – | – | – | ≈ 50% | induced death | did induce nuclear localization of DAF-16 | ≈ 50% | marked increase
